The assay concerns STAT1 (phosphorylated at Tyr701) in NCI-H1373 cells. The assay is described as follows: Phospho-STAT1 (Tyr701) LANCE Ultra TR-FRET detection assay. Type of assay: cell-based. To be noted: Homo sapiens, NCI-H1373, 48 h, induction of pSTAT1 in NCI-H1373 cells, 48 hours incubation; normalized to 10 uM positive control and DMSO; 4-parameter fit; read-out: NH1373 pSTAT1 EC50. As for the experimental part: Phospho-STAT1 (Tyr701 LANCE Ultra TR-FRET Detection Assay
LANCE Ultra phospho-STAT1 (Tyr701) kits are designed for the detection of phosphorylated STAT1 in cell lysates using a simple, homogeneous LANCE Ultra sandwich assay (Cat. #TRF4028M). This assay is intended for assessing compound induction of endogenous levels of cellular STAT1 (phosphorylated at Tyr701) in NCI-H1373 cells. The NCI-H1373 cells are cultured in RPMI 1640 media containing 10% heat inactivated FBS, GlutaMAX, 1% Penicillin-Streptomycin. An Echo acoustic liquid handler is used to transfer 60 nanoliters of compound dilutions using the Echo Qualified, 384-well polypropylene microplate clear flat bottom source plates into a Greiner (#781080) cell culture microplate. NCI-H1373 cells are seeded into these compound-spotted culture plates at 30,000 cells/well in a 60 uL volume in growth media. The plates are incubated in a 5% CO2 humidified incubator at 37° C. for 48 hours. […] Briefly, […] of supplemented lysis buffer is added to each well and allowed to shake for 1 hour at 400 rpm. Next, 5 ul of remixed antibody solutions (vol/vol) prepared in detection buffer are added to each well and allowed to incubate at room temperature overnight. After spinning the plate down at 300 rpm for 1 min, the plate is read on an EnVision plate reader set up for Eu3+ Cryptate and fluorescence emission is measured at two different wavelengths (665 nm and 620 nm). The HTRF ratio is then calculated ([…]) for each well to determine the amount of pSTAT1 in the cell lysate, and the data is then normalized to 10 uM (S)-5-((1-(3-oxo-3-(4-(5-(trifluoromethyl)pyrimidin-2-yl)piperazin-1-yl)propoxy)propan-2-yl)amino)-4-(trifluoromethyl)pyridazin-3(2H)-one positive and DMSO negative controls. The values were then plotted as a function of compound concentration and a 4-parameter fit was applied to derive the EC50 values.
On the technique in general: In TR-FRET formats the signal depends on donor and acceptor labels being close together.

Each structure is given as a SMILES string.

As for `COc1cnc(-c2cc3c(cc2F)C(=O)N(C[C@@H]2CCC[C@H](Nc4cn[nH]c(=O)c4C(F)(F)F)C2)CC3)nc1` [Example 70, 7-fluoro-6-(5-methoxypyrimidin-2-yl)-2-(((1R,3S)-3-((6-oxo-5-(trifluoromethyl)-1,6-dihydropyridazin-4-yl)amino)cyclohexyl)methyl)-3,4-dihydroisoquinolin-1(2H)-one], the EC50 came to 11.1 nM.

Regarding `CC(F)(F)c1cnc(-c2cc3c(F)cn(C[C@@H]4CCC[C@H](Nc5cn[nH]c(=O)c5C(F)(F)F)C4)c(=O)c3cc2F)nc1` [Example 42], the EC50 amounted to 2.45 nM.

With `CS(=O)(=O)c1cnc(-c2cc3c(F)cn(C[C@@H]4CCC[C@H](Nc5cn[nH]c(=O)c5C(F)(F)F)C4)c(=O)c3c(F)c2F)nc1` [Example 41], the EC50 is 3.25 nM.

Turning to `COc1cnc(-c2cc3c(Cl)cn(C[C@@H]4CCC[C@H](Nc5cn[nH]c(=O)c5C(F)(F)F)C4)c(=O)c3cc2F)nc1` [Example 58, 4-chloro-7-fluoro-6-(5-methoxypyrimidin-2-yl)-2-[[(1R,3S)-3-[[6-oxo-5-(trifluoromethyl)-1H-pyridazin-4-yl]amino]cyclohexyl]methyl]isoquinolin-1-one], the EC50 turned out to be 5.91 nM.

`CC(C)(O)c1cnc(-c2cc3c(F)cn(C[C@@H]4CCC[C@H](Nc5cn[nH]c(=O)c5C(F)(F)F)C4)c(=O)c3c(F)c2F)nc1` [Example 37, 4,7,8-trifluoro-6-(5-(2-hydroxypropan-2-yl)pyrimidin-2-yl)-2-(((1R,3S)-3-((6-oxo-5-(trifluoromethyl)-1,6-dihydropyridazin-4-yl)amino)cyclohexyl)methyl)isoquinolin-1(2H)-one]: the EC50 was 2.48 nM.

Consider `CC(C)(O)COc1cnc(-c2cc3ccn(C[C@@H]4CCC[C@H](Nc5cn[nH]c(=O)c5C(F)(F)F)C4)c(=O)c3c(F)c2F)nc1` [Example 16, 7,8-difluoro-6-(5-(2-hydroxy-2-methylpropoxy)pyrimidin-2-yl)-2-(((1R,3S)-3-((6-oxo-5-(trifluoromethyl)-1,6-dihydropyridazin-4-yl)amino)cyclohexyl)methyl)isoquinolin-1(2H)-one], for which the EC50 turned out to be 31.3 nM.

Consider `O=c1[nH]ncc(O[C@H]2CCC[C@@H](Cn3cc(F)c4cc(-c5ncc(OC(F)(F)F)cn5)c(F)c(F)c4c3=O)C2)c1C(F)(F)F` [Example 49, 4,7,8-trifluoro-2-(((1R,3S)-3-((6-oxo-5-(trifluoromethyl)-1,6-dihydropyridazin-4-yl)oxy)cyclohexyl)methyl)-6-(5-(trifluoromethoxy)pyrimidin-2-yl)isoquinolin-1(2H)-one], for which the EC50 was 4.89 nM.

Take `O=c1[nH]ncc(N[C@H]2CCC[C@@H](Cn3ccc4cc(-c5ncc(OCCO)cn5)c(F)c(F)c4c3=O)C2)c1C(F)(F)F` [Example 47, 7,8-difluoro-6-(5-(2-hydroxyethoxy)pyrimidin-2-yl)-2-(((1R,3S)-3-((6-oxo-5-(trifluoromethyl)-1,6-dihydropyridazin-4-yl)amino)cyclohexyl)methyl)isoquinolin-1(2H)-one]: the EC50 was 4.86 nM.

With `CC(F)(F)c1cnc(-c2cc3ccn(C[C@@H]4CCC[C@H](Oc5cn[nH]c(=O)c5C(F)(F)F)C4)c(=O)c3c(F)c2F)nc1` [Example 56, 6-(5-(1,1-difluoroethyl)pyrimidin-2-yl)-7,8-difluoro-2-(((1R,3S)-3-((6-oxo-5-(trifluoromethyl)-1,6-dihydropyridazin-4-yl)oxy)cyclohexyl)methyl)isoquinolin-1(2H)-one], the concentration for a half-maximal effect (EC50) stood at 0.915 nM.

As to `CS(=N)(=O)c1cnc(-c2cc3ccn(C[C@@H]4CCC[C@H](Nc5cn[nH]c(=O)c5C(F)(F)F)C4)c(=O)c3c(F)c2F)nc1` (stereo partly drawn) [Example 24, 7,8-difluoro-6-(5-(methylsulfonimidoyl)pyrimidin-2-yl)-2-(((1R,3S)-3-((6-oxo-5-(trifluoromethyl)-1,6-dihydropyridazin-4-yl)amino)cyclohexyl)methyl)isoquinolin-1(2H)-one], the EC50 was found to be 38.1 nM.

For the compound `O=c1[nH]ncc(N[C@H]2CCC[C@@H](Cn3cc(Cl)c4cc(-c5nc6ccccn6n5)c(F)cc4c3=O)C2)c1C(F)(F)F` [Example 59, 6-([1,2,4]triazolo[1,5-a]pyridin-2-yl)-4-chloro-7-fluoro-2-(((1R,3S)-3-((6-oxo-5-(trifluoromethyl)-1,6-dihydropyridazin-4-yl)amino)cyclohexyl)methyl)isoquinolin-1(2H)-one], the EC50 was found to be 2.02 nM.

For the compound `CC(O)c1cnc(-c2cc3ccn(C[C@@H]4CCC[C@H](Nc5cn[nH]c(=O)c5C(F)(F)F)C4)c(=O)c3cc2F)nc1` (stereo partly drawn) [Example 10, 7-fluoro-6-(5-(1-hydroxyethyl)pyrimidin-2-yl)-2-(((1R,3S)-3-((6-oxo-5-(trifluoromethyl)-1,6-dihydropyridazin-4-yl)amino)cyclohexyl)methyl)isoquinolin-1(2H)-one], the EC50 amounted to 6.86 nM.

Consider `CS(=O)(=O)c1ccc(-c2cc3ccn(C[C@@H]4CCC[C@H](Nc5cn[nH]c(=O)c5C(F)(F)F)C4)c(=O)c3cc2F)nc1` [Example 11, 7-fluoro-6-(5-(methylsulfonyl)pyridin-2-yl)-2-(((1R,3S)-3-((6-oxo-5-(trifluoromethyl)-1,6-dihydropyridazin-4-yl)amino)cyclohexyl)methyl)isoquinolin-1(2H)-one], for which the EC50 came to 13.6 nM.

As for `COc1nc(-c2cc3ccn(C[C@@H]4CCC[C@H](Nc5cn[nH]c(=O)c5C(F)(F)F)C4)c(=O)c3cc2F)ncc1C#N` [Example 3, 2-(7-fluoro-1-oxo-2-(((1R,3S)-3-((6-oxo-5-(trifluoromethyl)-1,6-dihydropyridazin-4-yl)amino)cyclohexyl)methyl)-1,2-dihydroisoquinolin-6-yl)-4-methoxypyrimidine-5-carbonitrile], the EC50 was determined as 3.85 nM.

With `CC(F)(F)c1cnc(-c2cc3c(F)cn(C[C@@H]4CCC[C@H](Nc5cn[nH]c(=O)c5C(F)(F)F)C4)c(=O)c3c(F)c2F)nc1` [Example 43], the EC50 amounted to 2.6 nM.

With `O=c1[nH]ncc(N[C@H]2CCC[C@@H](Cn3cc(F)c4cc(-c5ncc(OC(F)(F)F)cn5)c(F)c(F)c4c3=O)C2)c1C(F)(F)F` [Example 44, 4,7,8-trifluoro-2-[[(1R,3S)-3-[[6-oxo-5-(trifluoromethyl)-1H-pyridazin-4-yl]amino]cyclohexyl]methyl]-6-[5-(trifluoromethoxy)pyrimidin-2-yl]isoquinolin-1-one], the EC50 turned out to be 4.17 nM.

On to `O=c1[nH]ncc(N[C@H]2CCC[C@@H](Cn3cc(F)c4cc(-c5nc6ccccn6n5)c(F)cc4c3=O)C2)c1C(F)(F)F` [Example 32, 6-([1,2,4]triazolo[1,5-a]pyridin-2-yl)-4,7-difluoro-2-(((1R,3S)-3-((6-oxo-5-(trifluoromethyl)-1,6-dihydropyridazin-4-yl)amino)cyclohexyl)methyl)isoquinolin-1(2H)-one], for which the concentration for a half-maximal effect (EC50) was determined as 1.53 nM.

As for `O=c1[nH]ncc(N[C@@H]2C[C@H](Cn3ccc4cc(-c5ncc(C(F)(F)F)cn5)c(F)cc4c3=O)CC(F)(F)C2)c1C(F)(F)F` (single isomer, unassigned) [Example 66], the EC50 is 29.2 nM.

Take `COc1cnc(-c2cc3c(F)cn(C[C@@H]4CCC[C@H](Oc5cn[nH]c(=O)c5C(F)(F)F)C4)c(=O)c3c(F)c2F)nc1` [Example 53, 4,7,8-trifluoro-6-(5-methoxypyrimidin-2-yl)-2-(((1R,3S)-3-((6-oxo-5-(trifluoromethyl)-1,6-dihydropyridazin-4-yl)oxy)cyclohexyl)methyl)isoquinolin-1(2H)-one]: the EC50 was found to be 2.09 nM.

Usually EC50 stands for the concentration needed to bring the measured effect to its halfway point.

For the origin of these results see patent publication US20250100998A1, “PARP7 INHIBITORS” (Gilead Sciences, Inc., priority 2023, published 2025).
